For one compound, IC50 results are on record in PubChem BioAssay AID1633 (PCMD, 2009).

For the assay, the target named is Procathepsin L (Homo sapiens) (UniProt P07711). Description: CTSL inhibition IC50, probe compound – biochemical, dose response (AID 1633). The note with it: purified cathepsin L, fluorogenic substrate, enzyme inhibition.
Sequence of Procathepsin L (Homo sapiens) (P07711 114-288 limits assumed): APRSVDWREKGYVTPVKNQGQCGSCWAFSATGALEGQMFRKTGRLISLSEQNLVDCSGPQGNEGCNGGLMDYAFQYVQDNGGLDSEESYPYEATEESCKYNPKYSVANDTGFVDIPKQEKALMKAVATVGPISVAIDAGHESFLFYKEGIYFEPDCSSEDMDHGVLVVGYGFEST
Sequence of Procathepsin L (Homo sapiens) (P07711 292-333 limits assumed): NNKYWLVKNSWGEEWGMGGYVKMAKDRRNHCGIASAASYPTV

In general, IC50 refers to the point on the concentration scale where inhibition reaches its midpoint. Take `CCc1ccccc1NC(=O)CSC(=O)NNC(=O)[C@H](Cc1c[nH]c2ccccc12)NC(=O)OC(C)(C)C`: the IC50 is 201 nM.
